# In patent US8648080B2, “Acid pump antagonist for the treatment of diseases involved in abnormal gastrointestinal motility” (RaQualia Pharma Inc., priority 2009, dated 2014):
# Tested on: gastrointestinal motility in the gastric antrum and duodenum
# Assay: gastrointestinal motility under pentagastrin-stimulated gastric acid secretion in conscious dogs with force transducers
# Assay type: in vivo, Beagle dogs
# Experimental: Beagle dogs surgically wearing a force transducer at gastric antrum and serosal side of duodenum were used, and the motion of the gastric antrum and duodenum under wakefulness were observed. After confirming the phase III in the hungry condition, gastric acid secretion was stimulated by pentagastrin subcutaneous infusion (6 microg/kg/hr). Pentagastrin infusion was continued until the end of the study. After about 2 hours from pentagastrin infusion, an acid pump antagonist (compound A) was orally administered, and then gastrointestinal motility was continuously observed for 2-3 hours. In FIG. 1, the horizontal axis represents the time at measuring, and the vertical axis represents the gastrointestinal contraction towards muscle bridge of gastric antrum or duodenum. The phase III contraction disappeared by pentagastrin stimulation, 6 microg/kg/hr, which is known to promote gastric acid secretion; and uncoordinated contraction, which is different from the contraction of postprandial period with solid food, occurred in the stomach and duodenum.
structure (smiles),measurement,setting,value
"COCCn1c(C)nc2cc(C(=O)N(C)C)c3c(c21)OC(c1ccccc1)CC3 (single isomer, unassigned; (-)) [compound A, (−)-1-(2-methoxyethyl)-N,N,2-trimethyl-8-phenyl-1,6,7,8-tetrahydrochromeno[7,8-d]imidazole-5-carboxamide]",effect on gastrointestinal motility (phase III contraction / IMC),"0.3 mg/kg orally, about 2 hours after start of pentagastrin s.c. infusion 6 microg/kg/hr, hungry condition, FIG. 1",the phase III contraction occurred in the stomach and duodenum
same,time after administration at which phase III contraction occurred,"0.3 mg/kg orally, pentagastrin infusion 6 microg/kg/hr, stomach and duodenum",one
"Cc1cccc(C)c1CNc1cc(C(=O)NCCO)cn2c(C)c(C)nc12 [AZD0865, 8-[{2,6-dimethylbenzyl}amino]-N-[2-hydroxyethyl]-2,3-dimethyl-imidazo[1,2-a]pyridin-6-carboxamide]",time after dosing until irregular contraction tended to subside,"1.5 mg/kg orally, pentagastrin infusion, method as Example 1",one
same,effect on gastrointestinal motility (phase III contraction / IMC),"1.5 mg/kg orally, pentagastrin infusion, method as Example 1, FIG. 4",IMC occurred
"Cc1nc2c(O[C@H]3CCOc4cc(F)cc(F)c43)cc(C(=O)N(C)C)cc2[nH]1 [compound B, (S)-(−)-4-[(5,7-difluoro-3,4-dihydro-2H-chromen-4-yl)oxy]-N,N,2-trimethyl-1H-benzimidazole-6-carboxamide]",time after dosing until IMC occurred,"1 mg/kg orally, pentagastrin infusion, method as Example 1",one
same,effect on gastrointestinal motility (phase III contraction / IMC),"1 mg/kg orally, pentagastrin infusion, method as Example 1, FIG. 2",IMC occurred
"Cc1nc(Nc2ccc(F)cc2)nc(N2CCc3ccccc3C2C)c1C.Cl (centres unmarked) [revaprazan, 5,6-dimethyl-2-(4-fluoro-phenylamino)-4-(1-methyl-1,2,3,4-tetrahydroisoquinoline-2-yl)pyrimidine hydrochloride]",time after dosing until irregular contraction tended to subside,"10 mg/kg orally, pentagastrin infusion, method as Example 1",one
same,effect on gastrointestinal motility (phase III contraction / IMC),"10 mg/kg orally, pentagastrin infusion, method as Example 1, FIG. 3",IMC occurred
